These results are taken from US9096580B2 (priority 2012, dated 2015).

Data set [1] relates to genotype 1b HCV replicon in Huh-7 cells. Briefly: HCV replicon luciferase assay. Particulars: Hepatitis C virus, 72 h; Huh-7 genotype 1b replicon, Renilla luciferase, 3 days incubation. In kind it is cell-based, HCV genotype 1b. The method, then: The cell lines used to evaluate compounds consist of a human hepatocyte derived cell line (Huh-7) that constitutively expresses a genotype 1b HCV replicon containing a Renilla luciferase reporter gene. These cells were maintained in Dulbecco's modified Eagle medium (DMEM) containing 10% FBS, 100 U/mL penicillin/streptomycin and 1.0 mg/mL G418.
HCV Replicon Luciferase Assay.
To evaluate compound efficacy, titrated compounds were transferred to sterile 384-well tissue culture treated plates, and the plates were seeded with HCV replicon cells (50 μL at a density of 2.4×10^3 cells/well) in DMEM containing 4% FBS (final DMSO concentration at 0.5%). After 3 days incubation at 37° C., cells were analyzed for Renilla Luciferase activity using the EnduRen substrate (Promega cat #E6485) according to the manufacturer's directions. Briefly, the EnduRen substrate was diluted in DMEM and then added to the plates to a final concentration of 7.5 μM. The plates were incubated for at least 1 h at 37° C. then read on a Viewlux Imager (PerkinElmer) using a luminescence program. The 50% effective concentration (EC50) was calculated using the four-parameter logistic formula noted above.
(Replicon systems follow genome replication, usually without infectious particles.)

Data set [2] has as its target HCV NS5B RdRp, genotype 1b (Hepatitis C virus genotype 1b (isolate Con1) (HCV), UniProt Q9WMX2). Briefly: HCV NS5B RdRp enzyme assay. It is filed as biochemical, HCV genotype 1b. The protocol:
HCV NS5B RdRp Cloning, Expression, and Purification.
The cDNA encoding the NS5B protein of HCV, genotype 1b, was cloned into the pET21a expression vector. The protein was expressed with an 18 amino acid C-terminal truncation to enhance the solubility. The E. coli competent cell line BL21(DE3) was used for expression of the protein. Cultures were grown at 37° C. for ˜4 hours until the cultures reached an optical density of 2.0 at 600 nm. The cultures were cooled to 20° C. and induced with 1 mM IPTG. Fresh ampicillin was added to a final concentration of 50 μg/mL and the cells were grown overnight at 20° C.
The lysis buffer consisted of 20 mM Tris-HCl, pH 7.4, 500 mM NaCl, 0.5% triton X-100, 1 mM DTT, 1 mM EDTA, 20% glycerol, 0.5 mg/mL lysozyme, 10 mM MgCl2, 15 ug/mL deoxyribonuclease I, and Complete TM protease inhibitor tablets (Roche). After addition of the lysis buffer, frozen cell pellets were resuspended using a tissue homogenizer. […]
After incubating for at least 15 minutes, plates were read on an Amersham LEADseeker multimodality imaging system.
IC50 values for compounds were determined using ten different [I]. IC50 values were calculated from the inhibition using the four-parameter logistic formula y=A+((B−A)/(1+((C/x)^D))), where A and B denote minimal and maximal % inhibition, respectively, C is the IC50, D is hill slope and x represents compound concentration.

Data set [3] deals with HCV. The conditions noted are these: cited from earlier work.
Data set [4] has as its system HCV. Particulars: combination therapy; cited from earlier work.

HCV NS5B RdRp, genotype 1b, sequence (Q9WMX2 2420-2992): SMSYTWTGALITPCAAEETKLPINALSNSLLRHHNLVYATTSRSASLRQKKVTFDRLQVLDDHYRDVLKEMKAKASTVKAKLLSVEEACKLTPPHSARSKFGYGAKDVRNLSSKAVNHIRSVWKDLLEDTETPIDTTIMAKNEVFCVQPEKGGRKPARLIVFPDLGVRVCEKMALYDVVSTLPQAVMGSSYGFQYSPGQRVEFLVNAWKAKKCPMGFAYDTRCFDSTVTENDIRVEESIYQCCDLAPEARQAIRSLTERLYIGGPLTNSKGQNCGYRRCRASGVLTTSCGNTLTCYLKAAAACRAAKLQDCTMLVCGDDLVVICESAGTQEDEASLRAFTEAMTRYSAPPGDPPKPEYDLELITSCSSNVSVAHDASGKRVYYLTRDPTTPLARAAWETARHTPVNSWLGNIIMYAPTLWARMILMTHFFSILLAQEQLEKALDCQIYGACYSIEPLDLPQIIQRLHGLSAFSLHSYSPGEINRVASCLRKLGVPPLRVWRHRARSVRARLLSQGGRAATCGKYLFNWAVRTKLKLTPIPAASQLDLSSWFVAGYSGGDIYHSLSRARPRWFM

Consider `CNC(=O)c1c(-c2ccc(F)cc2)oc2ccc(-c3cc(C(=O)NC4(c5ncccn5)CNC4)c(OC)cc3C)c(F)c12`, for which, in data set [1], the response was half-maximal at 900 nM (EC50). In data set [2], `CNC(=O)c1c(-c2ccc(F)cc2)oc2ccc(-c3cc(C(=O)NC4(c5ncccn5)CNC4)cc(F)c3C)c(F)c12` showed an IC50 of 330 nM. The molecule further yielded an EC50 in data set [1] of 390 nM. In the same order, the values of `CNC(=O)c1c(-c2ccc(F)cc2)oc2ccc(-c3cc(C(=O)NC4(c5ncccn5)CN(C)C4)ccc3C)c(F)c12` are 780 nM and 2460 nM. In data set [1], `CNC(=O)c1c(-c2ccc(F)cc2)oc2ccc(-c3cc(C(=O)NC4(c5ncccn5)CN(C)C4)c(OC)cc3C)c(F)c12` yielded an EC50 of 1190 nM.

Molecule `CNC(=O)c1c(-c2ccc(F)cc2)oc2ccc(-c3cc(C(=O)NC4(c5ncccn5)CNC4)ccc3C)c(F)c12` [4-fluoro-2-(4-fluorophenyl)-N-methyl-5-(2-methyl-5-(3-(pyrimidin-2-yl)azetidin-3-ylcarbamoyl)phenyl)benzofuran-3-carboxamide] returned a concentration giving a half-maximal response (EC50) in data set [1] of 4330 nM. Same read-out and setting: the figure for `CNC(=O)c1c(-c2ccc(F)cc2)oc2ccc(-c3cc(C(=O)NC4(c5ncccn5)CN(C)C4)cc(F)c3C)c(F)c12` [4-fluoro-5-(3-fluoro-2-methyl-5-(1-methyl-3-(pyrimidin-2-yl)azetidin-3-ylcarbamoyl)phenyl)-2-(4-fluorophenyl)-N-methylbenzofuran-3-carboxamide] is 820 nM. For `CNC(=O)c1c(-c2ccc(F)cc2)oc2cc(N(CCO)S(C)(=O)=O)c(C3CC3)cc12` [HCV-796], the “toxicity during extended dosing” value in the data set on HCV [3] (extended dosing of the combination regimens with interferon and ribavirin) was “hepatic toxicity”. In the data set with HCV [3] (patients, single agent: transient decrease then rebound), the “HCV RNA levels in patients” value is “reduce HCV RNA levels”. For the molecule alpha-interferon and ribavirin, the “sustained efficacy, share of patients” value with HCV [4] was 40%.

As a reminder, the EC50 is the concentration giving half of the maximal effect. Higher therefore signals a less potent agent. One may read the IC50 as the concentration that inhibits the measured activity by half. Higher therefore signals lower potency.
